Source: patent publication US9765074B2, “Inhibitors of the renal outer medullary potassium channel” (Merck Sharp & Dohme Corp., priority 2013, dated 2017)

Target: T1, hROMK (hKir1.1) (Homo sapiens, UniProt P48048)
T1 construct: expressed in transfected cells
T1 sequence (P48048 1-391): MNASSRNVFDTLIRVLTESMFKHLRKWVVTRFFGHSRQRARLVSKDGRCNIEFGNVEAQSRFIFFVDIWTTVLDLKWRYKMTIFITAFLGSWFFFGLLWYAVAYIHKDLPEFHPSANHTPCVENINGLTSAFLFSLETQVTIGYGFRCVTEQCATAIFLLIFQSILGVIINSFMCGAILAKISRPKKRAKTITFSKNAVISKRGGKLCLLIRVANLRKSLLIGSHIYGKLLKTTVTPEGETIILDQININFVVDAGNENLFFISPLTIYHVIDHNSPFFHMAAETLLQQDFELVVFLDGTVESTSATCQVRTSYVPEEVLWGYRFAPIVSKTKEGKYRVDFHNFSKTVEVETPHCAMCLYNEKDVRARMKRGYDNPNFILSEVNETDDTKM
Assay: Thallium Flux Assay (ROMK channel functional thallium flux, FLIPR-Tetra)
Format: cell-based
Conditions: HEK293 cells stably expressing hROMK (hKir1.1); 30 min compound incubation
In short: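 HEK293 cells stably expressing hKir1.1, loaded with FluxOR dye for 90 min, then preincubated with compound for 30 min at ambient temperature with 0.3 mM ouabain and probenecid. Stimulated with 3 mM thallium/0.3 mM potassium (final); fluorescence read ~10 min. Normalized to 3 μM reference ROMK inhibitor; IC50 from inhibition of flux.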

Row | Compound | IC50
1 | CC1=C(N2C=CC3(CCN(CCc4ncc(-n5cnnn5)nc4C)CC3)C2=O)COC1=O [Example 263, 2-(4-methyl-5-oxo-2,5-dihydrofuran-3-yl)-8-{2-[3-methyl-5-(1H-tetrazol-1-yl)pyrazin-2-yl]ethyl}-1-oxo-2-aza-8-azoniaspiro[4.5]dec-3-ene] | 0.01 µM
2 | C[C@H]1CC2(CCN(CCc3ccc(-n4cnnn4)nn3)CC2)C(=O)N1C1=CC(=O)OC1 [Example 264, (3S)-3-methyl-2-(5-oxo-2,5-dihydrofuran-3-yl)-8-{2-[6-(1H-tetrazol-1-yl)pyridazin-3-yl]ethyl}-2,8-diazaspiro[4.5]decan-1-one] | 0.003 µM
3 | Cc1nc(-n2cnnn2)cnc1CCN1CCC2(CC1)CCN(C1=CC(=O)OC1)C2=O [Example 269, 8-{2-[3-methyl-5-(1H-tetrazol-1-yl)pyrazin-2-yl]ethyl}-2-(5-oxo-2,5-dihydrofuran-3-yl)-2,8-diazaspiro[4.5]decan-1-one] | 0.02 µM
4 | C[C@H]1CC2(CCN(CCc3ncc(-n4cnnn4)nc3C3CC3)CC2)C(=O)N1C1=CC(=O)OC1 [Example 270, (S)-8-(2-(3-cyclopropyl-5-(1H-tetrazol-1-yl)pyrazin-2-yl)ethyl)-3-methyl-2-(5-oxo-2,5-dihydrofuran-3-yl)-2,8-diazaspiro[4.5]decan-1-one] | 0.01 µM
5 | CCc1nc(-n2cnnn2)cnc1CCN1CCC2(CC1)C[C@H](C)N(C1=CC(=O)OC1)C2=O [Example 271, (S)-8-(2-(3-ethyl-5-(1H-tetrazol-1-yl)pyrazin-2-yl)ethyl)-3-methyl-2-(5-oxo-2,5-dihydrofuran-3-yl)-2,8-diazaspiro[4.5]decan-1-one] | 0.005 µM
6 | CO[C@H](CN1CCC2(CC1)C[C@@H](C)N(C1=C(C)C(=O)OC1)C2=O)c1ccc(-n2cnnn2)nc1 [Example 287, (3R)-8-{(2S)-2-methoxy-2-[6-(1H-tetrazol-1-yl)pyridin-3-yl]ethyl}-3-methyl-2-(4-methyl-5-oxo-2,5-dihydrofuran-3-yl)-1-oxo-2-aza-8-azoniaspiro[4.5]decane] | 0.1 µM
7 | CO[C@@H](CN1C2CCC1CC1(CCN(C3=C(C)C(=O)OC3)C1=O)C2)c1ccc(-n2cnnn2)nc1 (stereo partly drawn) [Example 288, (1R,3R,5S)-S-((R)-2-(6-(1H-tetrazol-1-yl)pyridin-3-yl)-2-methoxyethyl)-1′-(4-methyl-5-oxo-2,5-dihydrofuran-3-yl)-8-azaspiro[bicyclo[3.2.1]octane-3,3′-pyrrolidin]-2′-one] | 0.03 µM

Other lines, results leading:

Row | IC50 | Compound
8 | 0.05 µM | CC1=C(N2CCC3(CCN(C[C@H](F)c4cnc(-n5cnnn5)cn4)CC3)C2=O)COC1=O [Example 276, (S)-8-(2-(5-(1H-Tetrazol-1-yl)pyrazin-2-yl)-2-fluoroethyl)-2-(4-methyl-5-oxo-2,5-dihydrofuran-3-yl)-2,8-diazaspiro[4.5]decan-1-one]
9 | 0.08 µM | CC1=C(N2CCC3(CCN(C[C@@H](F)c4cnc(-n5cnnn5)cn4)CC3)C2=O)COC1=O [Example 277, 8-{(2R)-2-fluoro-2-[5-(1H-tetrazol-1-yl)pyrazin-2-yl]ethyl}-2-(4-methyl-5-oxo-2,5-dihydrofuran-3-yl)-1-oxo-2-aza-8-azoniaspiro[4.5]decane]
10 | 0.03 µM | CC1=C(N2CCC3(CCN(C[C@H](F)c4ccc(-n5cnnn5)nn4)CC3)C2=O)COC1=O [Example 278, 8-{(2S)-2-fluoro-2-[6-(1H-tetrazol-1-yl)pyridazin-3-yl]ethyl}-2-(4-methyl-5-oxo-2,5-dihydrofuran-3-yl)-1-oxo-2-aza-8-azoniaspiro[4.5]decane]
11 | 0.02 µM | CC1=C(N2CCC3(CCN(C[C@H](F)c4ccc(-n5cnnn5)cn4)CC3)C2=O)COC1=O [Example 279, 8-{(2S)-2-fluoro-2-[5-(1H-tetrazol-1-yl)pyridin-2-yl]ethyl}-2-(4-methyl-5-oxo-2,5-dihydrofuran-3-yl)-1-oxo-2-aza-8-azoniaspiro[4.5]decane]
12 | 0.03 µM | CC1=C(N2CCC3(CCN(C[C@@H](F)c4ccc(-n5cnnn5)cn4)CC3)C2=O)COC1=O [Example 280, 8-{(2R)-2-fluoro-2-[5-(1H-tetrazol-1-yl)pyridin-2-yl]ethyl}-2-(4-methyl-5-oxo-2,5-dihydrofuran-3-yl)-1-oxo-2-aza-8-azoniaspiro[4.5]decane]
13 | 0.14 µM | CO[C@H](CN1CCC2(CC1)CCN(C1=C(C)C(=O)OC1)C2=O)c1cnc(-n2cnnn2)cn1 [Example 281, 8-{(2R)-2-methoxy-2-[5-(1H-tetrazol-1-yl)pyrazin-2-yl]ethyl}-2-(4-methyl-5-oxo-2,5-dihydrofuran-3-yl)-1-oxo-2-aza-8-azoniaspiro[4.5]decane]
14 | 0.07 µM | CO[C@@H](CN1CCC2(CC1)CCN(C1=C(C)C(=O)OC1)C2=O)c1ccc(-n2cnnn2)cn1 [Example 282, 8-{(2S)-2-methoxy-2-[5-(1H-tetrazol-1-yl)pyridin-2-yl]ethyl}-2-(4-methyl-5-oxo-2,5-dihydrofuran-3-yl)-1-oxo-2-aza-8-azoniaspiro[4.5]decane]
15 | 0.06 µM | CO[C@@H](CN1CCC2(CC1)CCN(C1=C(C)C(=O)OC1)C2=O)c1cnc(-n2cnnn2)cn1 [Example 283]
16 | 0.05 µM | CC1=C(N2CCC3(CCN(C[C@H](OC(C)C)c4ccc(-n5cnnn5)nc4)CC3)C2=O)COC1=O [Example 285, 8-{(2R)-2-(1-methylethoxy)-2-[6-(1H-tetrazol-1-yl)pyridin-3-yl]ethyl}-2-(4-methyl-5-oxo-2,5-dihydrofuran-3-yl)-1-oxo-2-aza-8-azoniaspiro[4.5]decane]
17 | 0.02 µM | CO[C@@H](CN1CCC2(CC1)CCN(C1=C(C)C(=O)OC1)C2=O)c1ccc(-n2cnnn2)nc1 [Example 289, (R)-8-(2-(6-(1H-tetrazol-1-yl)pyridin-3-yl)-2-methoxyethyl)-2-(4-methyl-5-oxo-2,5-dihydrofuran-3-yl)-2,8-diazaspiro[4.5]decan-1-one]
